Measured values as given in US11504425B2, “Amphiphilic oligodeoxynucleotide conjugates as adjuvant enhancers” (WAYNE STATE UNIVERSITY, priority 2019, dated 2022).

Columns and labels:
human TLR8 (hTLR8) = target: T1, human TLR8 (hTLR8) (Homo sapiens, UniProt Q9NR97); assay: HEK hTLR8 reporter cells NF-κB/SEAP; format: cell-based; conditions: 1 μg/ml or indicated concentrations TLR8-506 + 1 μM ODN, 24 h
T1 construct: host or cells: HEK-Blue-hTLR8 (HEK293)
T1 sequence (Q9NR97 27-1041): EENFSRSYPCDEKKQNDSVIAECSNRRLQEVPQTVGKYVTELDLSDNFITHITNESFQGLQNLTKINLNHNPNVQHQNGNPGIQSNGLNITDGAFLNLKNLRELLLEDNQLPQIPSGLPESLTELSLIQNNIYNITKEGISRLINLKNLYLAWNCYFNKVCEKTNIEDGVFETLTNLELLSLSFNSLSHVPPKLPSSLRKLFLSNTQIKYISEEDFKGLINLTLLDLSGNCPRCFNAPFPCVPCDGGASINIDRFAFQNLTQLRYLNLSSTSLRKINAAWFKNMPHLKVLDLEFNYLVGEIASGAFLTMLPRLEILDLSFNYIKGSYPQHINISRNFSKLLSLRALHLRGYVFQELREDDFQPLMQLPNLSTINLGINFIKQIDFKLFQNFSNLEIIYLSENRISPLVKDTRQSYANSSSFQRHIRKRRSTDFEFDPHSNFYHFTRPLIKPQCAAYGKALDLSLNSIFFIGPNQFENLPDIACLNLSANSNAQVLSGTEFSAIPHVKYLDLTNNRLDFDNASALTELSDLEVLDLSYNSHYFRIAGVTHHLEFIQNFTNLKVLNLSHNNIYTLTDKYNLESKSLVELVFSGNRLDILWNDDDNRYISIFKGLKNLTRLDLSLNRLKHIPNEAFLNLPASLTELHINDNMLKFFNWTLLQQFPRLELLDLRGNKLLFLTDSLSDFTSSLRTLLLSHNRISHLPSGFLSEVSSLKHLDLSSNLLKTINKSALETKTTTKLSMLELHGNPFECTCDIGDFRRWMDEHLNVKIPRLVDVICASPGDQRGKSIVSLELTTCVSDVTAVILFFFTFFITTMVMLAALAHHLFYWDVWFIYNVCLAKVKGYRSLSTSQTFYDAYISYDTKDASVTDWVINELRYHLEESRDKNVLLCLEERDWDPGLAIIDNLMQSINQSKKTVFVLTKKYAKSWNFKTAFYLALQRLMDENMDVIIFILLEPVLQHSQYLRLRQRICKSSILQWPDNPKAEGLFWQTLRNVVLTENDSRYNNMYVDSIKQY
Experimental: (§1) HEK-Blue™-mTLR7, mTLR8, hTLR7, hTLR8, and RAW-Blue™ cells were purchased from InvivoGen and were used to evaluate bioactivities of lipo ODNs and TLR 7/8 ligands in vitro. All these cell lines were cultured with DMEM supplemented with 10% FBS, 1% P/S and 100 μg/mL Normocin at 37° C. with 5% CO2. […] After incubating for 24 h, SEAP levels were quantified by developing supernatants with QuantiBlue™ substrate for 1 h and reading absorption at 620 nm, following manufacturer's instructions.
HEK293 cells transfected with human TLR7 or 8 were used. The cells were stimulated with IMQ in the presence of several inhibitory oligonucleotides reported in the literature. […] In contrast, all the unmodified ODNs maintained their inhibitory function, reducing the NF-κB secretion to basal levels (FIG. 8A). We then plotted the IMQ dose response curve in human TLR-7 transfected HEK293 cells.

[1] = system: TLR7-mediated NF-κB activation in Raw-Blue reporter cells; assay: Raw-Blue NF-κB/SEAP reporter stimulation with TLR7 ligands; format: cell-based, murine
Experimental: as §1
Following subcutaneous injection, lipid-modified oligonucleotides efficiently accumulated in the draining lymph nodes by binding and trafficking with endogenous albumin protein (Liu et al., Nature 507, 519-522, 2014; Yu et al., Pharmaceutical Res. 35: 56, 2018). Inspired by that prior work, the current study was aimed to take advantage of lipid functionalization in other oligonucleotide-based TLR inhibitors to further expand the pool of lipo suppressive ODNs. The therapeutic efficacy of lipid-modified IRS 954 in suppressing TLR7-mediated immune activation and alleviating the severity of SLE was investigated. Imiquimod (IMQ; FIG. 1A) was first used to stimulate TLR7-mediated immune activation in Raw-Blue reporter cells. For the initial experiments, Raw Blue cells-a murine RAW 264.7 macrophage cell line which expresses secreted embryonic alkaline phosphatase (SEAP) under the control of an NF-κB and AP-1, were used. Raw Blue cells express many toll-like receptors, including TLR-7, TLR-8, and TLR-9. The immunosuppressive capability of unmodified or lipo IRS 954 was determined by quantifying the level of TLR7-induced NF-κB activation.

5′-TTTTTTTTTTTTTTTTTTTT-3′ [T20]
TLR8-506 stimulation of hTLR8 cells in the presence of the ODN (human TLR8 (hTLR8)): enhanced the stimulation of TLR8-506 | lowering of IMQ-induced NF-κB activation ([1]; 2 μM IMQ + 1 μM ODN, 24 h): 2 folds | IMQ-elicited activation with high-dose ODN ([1]; 2 μM IMQ + 5 μM T20, 24 h): significantly enhanced inhibition in IMQ-elicited activation | overall NF-κB stimulation by IMQ, CL075, R848 in the presence of the ODN ([1]; ligands at indicated concentrations + 1 μM ODN, 24 h): suppressive effect on all the TLR ligands tested
